Drawing on ChEMBL document CHEMBL1144704, “Phloroglucinols with prooxidant activity from Garcinia subelliptica” (J Nat Prod, 2008), this text covers Activity for four compounds.

Structures are written as SMILES. Activity calls are given as the source filed them. No cut-off for these calls is given here.

Assay [1] relates to Escherichia coli. Put plainly: Induction of Cu(2)-mediated pBR322 DNA cleavage assessed as conversion of supercoiled to relaxed open circle at 300 uM by agarose gel electrophoresis in presence of superoxide dismutase.
In assay [2] the test system is Escherichia coli. Put plainly: Induction of Cu(2)-mediated pBR322 DNA cleavage assessed as conversion of supercoiled to relaxed open circle at 300 uM by agarose gel electrophoresis in presence of catalase.
Assay [3] relates to Escherichia coli. Put plainly: Induction of Cu(2)-mediated pBR322 DNA cleavage assessed as conversion of supercoiled to relaxed open circle at 300 uM by agarose gel electrophoresis in presence of potassium iodide.
Assay [4] concerns Escherichia coli. Put plainly: Induction of Cu(2)-mediated pBR322 DNA cleavage assessed as conversion of supercoiled to relaxed open circle at 50 to 300 uM by agarose gel electrophoresis.

`C=C(C)CC[C@@H](C[C@H]1C[C@@]2(CC=C(C)C)C(=O)C(CC=C(C)C)=C(O)[C@@](C(=O)c3ccc(O)c(O)c3)(C2=O)C1(C)C)C(=C)C` (stereo in doubt; 2): the result in assay [1], in assay [2] and in assay [3] was Active.

For the compound `CC(C)=CC[C@]12C[C@H](O)C(C)(C)O[C@@H](C(C)(C)O)C[C@@](O)(C(=O)C(C(=O)C(C)C)=C1O)C2=O`, the result in assay [1], in assay [4], in assay [2] and in assay [3] was Active.

Regarding `C=C(C)CC[C@@H](C[C@@H]1C[C@]2(CC=C(C)C)C(=O)[C@@](C(=O)c3ccc(O)c(O)c3)(C(=O)C3=C2O[C@@H](C(C)(C)O)C3)C1(C)C)C(=C)C`, the outcome in assay [4] was inactive.

For `C=C(C)CC[C@@H](C[C@H]1C[C@@]2(CC=C(C)C)C(=O)C(CC=C(C)C)=C(O)[C@@](C(=O)c3ccc(O)c(O)c3)(C2=O)C1(C)C)C(=C)C` (stereo in doubt; 2a), the result in assay [1], in assay [2] and in assay [3] was Active.
